According to patent US20260199529A1, “EPITHELIAL CELL ADHESION MOLECULE-SPECIFIC PEPTIDE CONJUGATES AND METHODS” (REGENTS OF THE UNIVERSITY OF MICHIGAN, priority 2022, published 2026):
“Also recorded” adds a separate entry of the source. Where a SMILES comes first, the peptide text is derived from it. Where no end group is shown, it is not given here. The star is where a group is joined. X1 = CC1(C)C(=CC=C2CCCC(C=CC3=[N+](CCCCS(=O)(=O)[O-])c4ccc(S(=O)(=O)O)cc4C3(C)C)=C2Oc2ccc(S(=O)(=O)O)cc2)N(CCCCCC(=O)NCCN2C(=O)CC(*)C2=O)c2ccc(S(=O)(=O)O)cc21

Key:
[1] = serum stability (half-life) after intravenous injection in mice; type: in vivo; settings: 40 nmol, mouse serum, 0-24 hours, first-order kinetics fit, read-out: serum half-life T1/2 (converted)
Procedure: (§1) A Pearson's correlation coefficient of p=0.81 was measured from the merged image. […] B) An apparent dissociation constant of kd=43 nM, R^2=0.99 was measured for HPD*-IRDye800 binding to Hep3B cells. The equilibrium dissociation constant kd=1/ka was calculated by performing using a least square fit of the data to the non-linear equation I=(I0+ImaxKa[X])/(I0+Ka[X]). I0 and Imax are the initial and maximum fluorescence intensities, corresponding to no peptide and at saturation, respectively, and [X] represents the concentration of the bound peptide. Results are the mean values from 3 independent experiments. C) Peptide stability in mouse serum was measured by intravenously injecting HPD*-IRDye800 (200 μM in 200 μL of PBS) in mice (n=5). Serum was collected at various time points from 0-24 hours post-injection. The fluorescence intensity I(t) was measured and fit to a first-order kinetics model I(t)=Io+A×exp(−Bt).
The serum half-life of HPD*-IRDye800 was measured to assess peptide stability. HPD*-IRDye800 was injected intravenously in live mice. Fluorescence intensities were measured time points ranging from 0-24 hours, and fit to a first order kinetic model.

[2] = system: human HCC Hep3B xenograft tumors; assay: in vivo NIR fluorescence imaging of orthotopic Hep3B xenograft tumors
[3] = system: patient-derived xenograft (PDX) tumor model of HCC; assay: in vivo whole-body fluorescence imaging, PDX tumor model of HCC; set-up: species or system mouse; settings: over 24 hours
Procedure: (§2) A) Images were collected with excitation at λex=800 nm before (pre) and at 0, 0.5, 1.0, 1.25, 1.5, 2, 4 and 24 hours post-injection of HPD*-IRDye800. […] PFH*-IRDye800 was administered for use as control. […] B) The quantified T/B ratio confirms a peak uptake of HPD*-IRDye800 by tumor at 1.5 hours. The adjacent non-tumor tissue region with equal area to the tumor region was used for background.
(§3) Tumor-bearing mice [a patient-derived xenograft (PDX) tumor model of HCC] were injected intravenously with the HPD*-IRDye800 and control peptides (300 μM in 200 μl PBS). Unlabeled peptide and ICG were administrated as above. The spatial extent and margins of tumors were identified using a NIR whole-body fluorescence imaging system (Pearl®, LI-COR Biosciences) up to 24 h post injection. The images were acquired using λex=800 nm with 85 μm resolution and 16.8×12 cm^2 field of view (FOV). Image Studio software (Li-Cor Biosciences) was used for analysis. Regions of interest (ROI) with area equal to that of the tumor and adjacent in location was measured for background.

[4] = as above; set-up: species or system mouse; settings: mouse, in vivo, iv, 300 uM in 200 ul PBS, whole-body imaging up to 24 hours, read-out: time of peak T/B ratio post-injection
Procedure: as §2, §3

EpCAM [5] = target: T1, EpCAM (Homo sapiens, UniProt P16422); assay: siRNA knockdown validation of binding (confocal microscopy); type: cell-based; settings: for fluorescence intensity / cell surface staining, siEpCAM versus siCL: Hep3B (EpCAM+) cells, siRNA against EpCAM vs control siRNA
T1 construct: endogenous in cells; host or cells: Hep3B human HCC cells (A1 also names human SG231 ICC cells)
T1 sequence (P16422 24-314): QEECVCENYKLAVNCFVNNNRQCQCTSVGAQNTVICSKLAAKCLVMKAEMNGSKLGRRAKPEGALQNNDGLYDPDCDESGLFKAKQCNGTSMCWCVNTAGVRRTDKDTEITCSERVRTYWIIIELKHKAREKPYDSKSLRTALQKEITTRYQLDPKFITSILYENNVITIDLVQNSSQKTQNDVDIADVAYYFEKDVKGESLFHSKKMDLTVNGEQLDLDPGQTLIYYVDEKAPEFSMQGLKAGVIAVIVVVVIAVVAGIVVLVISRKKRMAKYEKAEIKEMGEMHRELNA
Procedure: (§4) An ANOVA was fit with terms for 3 treatments, 2 siRNA effects, and their interactions using slides in triplicate. […] Fluorescence intensities were measured from 10 cells chosen randomly from 3 slides. * P<0.01 by pairwise comparisons.
Specific binding of HPD*-IRDye800 to EpCAM was validated using siRNA knockdown in human SG231 (EpCAM+) ICC cells. Preliminary data were obtained using Hep3B (EpCAM+) human HCC cells. The cells were treated with siRNA against EpCAM (siEpCAM) and control siRNA (siCL).

EpCAM [6] = target: T1, EpCAM; assay: co-localization assay with anti-EpCAM-AF488 on Hep3B cells; type: cell-based
Procedure: as §1
Finally, specific binding of HPD*-IRDye800 to EpCAM was validated using a co-localization assay. Binding by HPD*-IRDye800 and anti-EpCAM-AF488 to the surface (arrows) of Hep3B cells co-localized with a correlation of p=0.81 measured on the merged image, FIG. 3A.

[7] = system: HCC micrometastases in lung; assay: detection of lung micrometastases (immunofluorescence); set-up: species or system mouse; settings: lung tissue sections of PDX tumor model mice
Text: D) Anti-cytokeratin stain confirms presence of human tumor (arrow). […] F) Corresponding histology (H&E) verifies HCC tumor in lung.
Immunofluorescence images were also collected from lung tissue sections of the PDX tumor model of HCC mice.

in vivo = settings: mouse, iv, 150 µM, 200 uL
Procedure: A total of n=8 animals were studied per group. […] P-values were calculated using a one-way ANOVA model. Background was defined as the adjacent non-tumor region with equal area of the tumor region.

[8] = peptide toxicity, animal necropsy histology (H&E); type: in vivo, mouse; settings: brain, heart, liver, spleen, lung, kidney, stomach, colon
Procedure: Mice were sacrificed at […].
Tumor bearing mice were euthanized on day 0 and 15 post-injection of the HPD*-IRDye800 and control peptides. Whole blood (~600 μL) was collected by cardiac puncture and submitted for standard hematology and chemistry. Major organs, including liver, kidney, heart, lung, spleen, stomach, intestine, and brain were resected, processed, and evaluated as routine histology (H&E). A total of 8 mice in each cohort were evaluated.

human HCC specimens = assay: immunofluorescence binding to human HCC specimens ex vivo
Procedure: Binding of HPD*-IRDye800 to human HCC specimens and metastatic lymph nodes ex vivo was examined using immunofluorescence.
The merged images show co-localization of peptide and antibody binding to HCC and normal liver, and a Pearson's correlation coefficient of p=0.68 and 0.66, respectively, were calculated. […] Results were compared with histology evaluated by an expert liver pathologist.

human HCC tumor = assay: ex vivo immunofluorescence of resected xenograft liver sections; set-up: species or system mouse; settings: immunofluorescence on resected liver sections
Text: After imaging was completed as described in Example 6, the mice were euthanized, and the livers were resected, formalin-fixed, and sectioned to confirm EpCAM expression in human […] tumors. […] The merged image confirms co-localization of peptide and antibody binding to HCC tumor but not to normal mouse liver, FIG. 8D.

EpCAM [9] = target: T1, EpCAM; assay: competition assay with unlabeled peptide; type: cell-based; settings: unlabeled competitor added at 0-120 mM
Procedure: as §4
Specific binding of HPD*-IRDye800 to EpCAM was also validated using a competition assay. Unlabeled HPD* was added to compete for binding with IRDye800-labeled HPD* with concentrations ranging from […].

[10] = target: T2, Epithelial cell adhesion molecule (EpCAM) (human, UniProt P16422 24-314); assay: flow cytometry, HPD*-IRDye800 0-200 nM on Hep3B cells; apparent dissociation constant
T2 construct: whole, on cells; also called human EpCAM
T2 sequence (looked up): T1 sequence (P16422 24-314)

## CSCC[C@H](NC(=O)[C@H](CC(=O)O)NC(=O)[C@@H]1CCCN1C(=O)[C@@H](N)Cc1c[nH]cn1)C(=O)N[C@@H](Cc1ccccc1)C(=O)N[C@H](C(=O)N[C@@H](CCCNC(=N)N)C(=O)N[C@H](C(=O)N[C@@H](Cc1c[nH]cn1)C(=O)N[C@@H](CO)C(=O)N[C@@H](Cc1c[nH]cn1)C(=O)N[C@@H](CC(N)=O)C(=O)NCC(=O)NCC(=O)NCC(=O)N[C@@H](CO)C(=O)N[C@@H](CSC1CC(=O)N(CCNC(=O)CCCCCN2C(=CC=C3CCCC(C=CC4=[N+](CCCCS(=O)(=O)[O-])c5ccc(S(=O)(=O)O)cc5C4(C)C)=C3Oc3ccc(S(=O)(=O)O)cc3)C(C)(C)c3cc(S(=O)(=O)O)ccc32)C1=O)C(N)=O)[C@@H](C)O)[C@@H](C)O (some centres unmarked) [HPD*-IRDye800] (H-HPDMFTRTHSHNGGGSC(X1)-NH2; N-terminus and C-terminus assumed)
[1]
  half-life: 2.6 h
[2]; Hep3B xenograft tumors, post-injection
  time to near complete clearance / signal back to baseline: ~ 48 hours
[2]; […] post-injection, Hep3B xenograft
  NIR fluorescence intensity of tumor versus PFH*-IRDye800: significantly greater
[2]; […] post-injection, tail vein, Hep3B xenograft
  mean tumor intensity, fold greater than PFH*-IRDye800: > 3.2 fold
[3]
  tumor uptake / T/B ratio in whole-body images: greater uptake
[4]
  tissue to tissue ratio: 1.5
EpCAM [5]
  fluorescence intensity / cell surface staining, siEpCAM versus siCL: Decreased cell surface staining; also recorded: reduced intensity
EpCAM [5]; confocal microscopy, control siRNA Hep3B cells
  binding to the surface of siCL (control) Hep3B cells: strong binding
EpCAM [6]; confocal microscopy
  binding to the surface of Hep3B human HCC cells: bind intensely
EpCAM [6]; merged image, Hep3B cells
  Pearson's correlation coefficient, co-localization with anti-EpCAM-AF488: 0.81
[7]
  detection of / binding to HCC micrometastases in lung: detected very small tumor volumes in the form of micrometastases; also recorded: strong binding
In vivo
  tissue to tissue ratio: 1.5
[8]
  acute toxicity on histology (H&E) of vital organs: No signs of acute toxicity
Human HCC specimens; HCC n=36, normal n=12
  fold increase in mean fluorescence intensity, HCC versus normal human liver: 2.6 fold
Human HCC specimens; human HCC sections
  Pearson's correlation coefficient, co-localization with anti-EpCAM-AF488: 0.68
Human HCC specimens; human specimens ex vivo
  AUC of ROC curve, HCC versus normal: 0.81
  sensitivity to distinguish HCC from normal (ROC): 85%
  specificity to distinguish HCC from normal (ROC): 66%
Human HCC specimens; immunofluorescence
  mean fluorescence intensity, binding to HCC versus normal human liver: significantly greater
Human HCC specimens; immunofluorescence, human specimens
  staining of the surface of human HCC cells: Intense staining; also recorded: strong staining
Human HCC specimens; normal human liver sections
  Pearson's correlation coefficient, co-localization with anti-EpCAM-AF488: 0.66
Human HCC tumor
  staining of HCC tumor cell surface (but not normal mouse liver): strong staining; also recorded: Bright fluorescence

## CC1(C)C(/C=C/C=C/C=C/C=C2\N(CCCCS(=O)(=O)[O-])c3ccc4ccccc4c3C2(C)C)=[N+](CCCCS(=O)(=O)[O-])c2ccc3ccccc3c21.[Na+] [ICG, reference compound]
[2]; Hep3B xenograft tumors, imaged 0-48 hours
  time of peak uptake / peak T/B ratio post-injection: over 48 hours
[3]
  tumor uptake / T/B ratio in whole-body images: non-specific uptake

## HPDMFTRTHSHN [HPD*, Optimized EpCAM-specific peptide, unlabeled]
EpCAM [9]
  mean fluorescence intensity from HPD*-IRDye800 with competition from unlabeled peptide: Decreased intensity; also recorded: decreased significantly
[3]
  tumor uptake / T/B ratio in whole-body images: reduced values
EpCAM [5]
  fluorescence intensity / cell surface staining, siEpCAM versus siCL: significantly greater signal for siCL versus siEpCAM

## PFHDMHSNHTRT [PFH*, Unlabeled scrambled peptide (control), reference compound]
EpCAM [5]
  fluorescence intensity / cell surface staining, siEpCAM versus siCL: non-significant difference

B1: HPD*-IRDye800 (peptide)
peptide: HPDMFTRTHSHNGGGSC
modifications: also: IRDye800 attached via C-terminal GGGSC linker
notes: also called IRDye800-labeled HPD*; EpCAM-specific peptide conjugate
[10]
  Kd: 43 nM
